“And” between values parts separate entries of the source, which are not always exact repeats. Equal entries are not always repeated. “Also recorded” adds a separate entry of the source.
Experiments:
Type in all cases: in vivo, human
[1] = system: solid malignancies (tumor neovasculature); assay: DCE-MRI (Ktr) in CA4P clinical trials
Description: The results in the CA4P trials were variable. In DCE-MRI, the rate constant Ktrans (Ktr), representing the rate of passage of gadolinium from the plasma into the tumor interstitium, is determined. Ktr itself is determined as a function of both tumor blood flow and vascular permeability, thus serving as a marker of the status of the tumor neovasculature.

p-ERK = assay: Immunohistochemistry of patient tumor tissue before and on sorafenib: p-ERK
Source text: (§1) Paraffin embedded tumor specimens from the patients' primary surgery and from lymph node biopsies after two weeks (Patient 1) and 17 months on treatment (Patient 2) were obtained. Thin (5 μm) sections from tumor tissue were cut and stained for the proliferation marker Ki-67 (Dakocytomation), and signaling markers p-ERK and p-AKT (Cell Signaling Technology) which are downstream indicators of BRAF and VEGFR2 activity. P-ERK is good reporter for BRAF activity, while p-AKT likely reflects signaling through several pathways including VEGFR. Slides were counterstained with hematoxylin and mounted in vectashield (Vector Labs). Two independent, blinded pathologists scored the slides based on intensity of stain and percent of cells staining positively.
(§2) Proliferation and cellular signaling in the tumor cell (TC) and the endothelial cell (EC) compartments were evaluated by immunohistochemistry (IHC).

[2] = system: metastatic papillary thyroid carcinoma (mPTC); assay: Response by CT and PET scan in two patients with metastatic papillary thyroid carcinoma on sorafenib
Description: Patient 1: A person palpated a right-sided neck mass in August 2004. The patient underwent total thyroidectomy with lymph node dissection and pathology confirmed mPTC in one of eight lymph nodes. They were treated with ^131I and placed on thyroid hormone replacement. In August 2005, an enlarged lymph node was palpated in their neck.
Treatment began on Apr. 18, 2006. Toxicity was assessed at every four weeks and response to treatment was assessed using serial CT and PET scans.
Patient 2: A person presented with a sore throat in March 2002. Their physician noted only right sided cervical lymphadenopathy. […] Thyroidectomy and right neck lymph node dissection removed a 2.5 cm tall-cell PTC with 12 of 49 lymph nodes containing mPTC.
PET scans were obtained on a dedicated whole-body PET scanner (C-PET, Phillips). At FDG injection, patients had fasted for 6 hours and blood glucose levels were less than 150 mg/dL. Image acquisition started 60 min following intravenous administration of FDG at a dose of 1.85 MBq/kg (0.05 mCi/kg) body weight. A transmission scan was obtained for attenuation correction.

Ki-67 = assay: Immunohistochemistry of patient tumor tissue before and on sorafenib: Ki-67
Source text: as §1, §2

[3] = Phase II study of sorafenib: adverse events (CTCAE v3.0), dose changes, TSH
Source text: (§3) This was an open-label, single institution phase II study of oral sorafenib in patients with metastatic thyroid carcinoma, including differentiated, poorly differentiated, medullary, and anaplastic subtypes. […] A cycle was defined as 4 weeks. Screening evaluations were completed within 2 weeks prior to the start of study drug, including medical history, demography, review of prior treatment, physical exam, 12-lead EKG, and laboratory evaluations including serum thyroid stimulating hormone (TSH) and thyroglobulin, and urinalysis. Radiological tests to identify target lesions were performed within 4 weeks of the first dose of study drug.
(§4) After beginning treatment, patients were followed at four-week intervals. At each visit, a history and physical examination were performed, and a CBC, chemistry panel, TSH and thyroglobulin drawn. Patients were assessed for new symptoms, compliance with study medications (pill count), and concomitant medications. Dose adjustments were made as needed for toxicity. Response was assessed radiographically after eight and sixteen weeks of treatment and every twelve weeks thereafter.
(§5) The study endpoints of best objective response rate and stable disease were measured based on the findings on computed tomography (CT) or magnetic resonance imaging (MRI) using RECIST. Additional endpoints included best response, duration of response and time to disease progression (TTP) on the basis of RECIST, clinical progression, or death. While TTP was the original endpoint, PFS and TTP were identical in this study, and PFS have been used in this report as it has become the more standard progression endpoint. All responses were confirmed by a study-designated radiologist. Adverse events were graded with the use of Common Terminology Criteria for Adverse Events, version 3.0 (CTCAE v3.0).

serum thyroglobulin = assay: Serum thyroglobulin (sTG) monitoring in patients on sorafenib
Source text: as §3, §4
sTG levels are monitored monthly as part of the clinical trial. As sTG can rise due inadequate suppression of TSH, sTG levels are analyzed in the context of the serum TSH. In patients where […]. In addition, high levels of anti sTG antibodies can render the sTG levels un-interpretable. To date one patient has TSH that was not adequately controlled, and a second patient with anti sTG antibodies in excess of 1000 IU/ml. These patients are excluded from this analysis. sTG levels are correlated with clinical outcomes, and results of imaging and tissue analysis as described in the section on statistical analysis below.

p-AKT = assay: Immunohistochemistry of patient tumor tissue before and on sorafenib: p-AKT
Source text: as §1, §2

[4] = system: metastatic thyroid carcinoma; assay: Open-label phase II study of oral sorafenib in metastatic thyroid carcinoma: best response by RECIST, PFS/TTP
Source text: Eligible patients were >18 years old with metastatic or unresectable thyroid carcinoma for which curative measures were no longer effective. Patients had evidence of measurable disease by RECIST criteria. All patients enrolled had evidence of disease progression in the year prior to initiation of treatment. Prior radioactive iodine treatments and one prior biologic treatment (kinase inhibitor, vaccine or antibody-based therapy) were allowed, but not within 3 weeks of treatment. […] Pre-menopausal women were required to have a negative pregnancy test and all patients of were required to use contraception.
Patients were ineligible if they had previous exposure to a Ras pathway inhibitor (including trastuzumab, EGFR inhibitors, farnesyl transferase inhibitors or MEK inhibitors) or were unable to swallow and retain oral pills. All patients provided written informed consent prior to enrollment on the trial. The study protocol was approved by the Institutional Review Board of the University of Pennsylvania.
as §3, §4, §5
This study was designed to exclude the null hypothesis response rate of 5% using a Simon two-stage design; the first stage included 30 patients, with an optional second stage including 25 additional patients if at least one response was observed. The observed response rate was tested against the null rate of 5% using an exact test for binomial proportions. Estimates of PFS (time from beginning on study drug to earlier of progression or death) with associated 95% confidence intervals were obtained using the method of Kaplan and Meier. Comparison of PFS among histological subtypes was conducted using the logrank test. All enrolled patients who received at least one day of treatment were included in this intent-to-treat analysis.
2) Evidence of measurable disease by RECIST criteria 3) Any number of prior radioactive iodine treatments and up to one prior biologic treatment.
Primary Endpoint: Efficacy of sorafenib (objective response rate) in patients with metastatic thyroid carcinoma.
Patients on study were monitored with CT scans every 2 months and PET scans prior to beginning therapy and 4 weeks after starting treatment. […]

[5] = Patient 1, after 2 weeks of treatment
[6] = Patient 2, after 17 months of treatment
[7] = Table 3 summary, 42 total / 31 evaluable patients
[8] = first 30 patients as of May 25, 2008, follow-up Kaplan-Meier analysis
[9] = first 30 patients, intention-to-treat
[10] = first 30 patients, intention-to-treat, 400 mg orally twice a day

## COc1ccc(/C=C\c2cc(OC)c(OC)c(OC)c2)cc1OP(=O)(O)O [CA4P]
[1]; certain patients, larger pre-treatment tumor Ktr values, incl. two with thyroid cancer
  Ktr response: Strong Ktr responses
[1]; other patients
  Ktr response: little or no effect

## CNC(=O)c1cc(Oc2ccc(NC(=O)Nc3ccc(Cl)c(C(F)(F)F)c3)cc2)ccn1 [sorafenib]
p-ERK; [5]
  p-ERK staining in ECs: no longer detected
  p-ERK staining in TCs: decreased
p-ERK; [6]
  p-ERK expression in ECs: markedly increased
  p-ERK staining in TCs: unchanged
[2]; Patient 1
  Progression-free survival: ≥ 1.3 years
[2]; Patient 1, after 12 months
  Decrease of target lesions (PR): 30%
[2]; Patient 1, after 12 weeks
  Decrease in size of lung lesions by RECIST: 25%
[2]; Patient 2
  Progression-free survival: ≥ 3.7 years
[2]; Patient 2, after 3.7 years on sorafenib
  Maintained partial response: 70%
[2]; Patient 2, after 12 weeks
  Decrease of largest target lesion: 52%
[2]; Patient 2, continued shrinkage after 20 weeks
  Decrease of largest target lesion: 72%
Ki-67; Patient 1, tissue after two weeks of treatment (pre-treatment 1% of TCs)
  Ki-67 positive cells: less than 1%
Ki-67; [6]
  Ki-67 positive TCs versus pre-treatment: no change in the number of positive cells
[3]; 30 patients
  Patients requiring drug holidays due to adverse events: 63%
  Patients who discontinued treatment due to adverse events: 20%
  Patients who experienced some weight loss: 60%
  Patients with doses reduced to control toxicities: 47%
[3]; CTCAE grade
  Toxicity leading to withdrawal, single patients: grade 3 rash; also recorded: grade 2 fatigue; also recorded: grade 4 liver toxicity
[3]; CTCAE v3.0
  Severity of treatment-related adverse events: predominantly of grade 1 or 2
[3]; Table 3 summary, 42 total patients
  Patients WD due to toxicity, number: 2
[3]; despite dose reductions and cessation
  Outcome of LFT elevations after eight weeks, one patient: died of liver failure
[3]; while on sorafenib, 30 patients
  Patients with rise in serum TSH to levels greater than 0.10 mIU/L: 33%
Serum thyroglobulin; Seventeen of 19 patients with serial levels
  Patients with marked response in serum thyroglobulin levels: 95%
Serum thyroglobulin; approximately 15 new patients enrolled since November 2008, iodine non-avid metastatic thyroid cancer
  Thyroglobulin levels: increased
Serum thyroglobulin; inferred from thyroglobulin levels, iodine non-avid metastatic thyroid cancer
  Iodine uptake: effective in increasing the iodine uptake
Serum thyroglobulin; most patients, first two to four months
  Course of sTG early on treatment: falls precipitously; also recorded: dropped precipitously
Serum thyroglobulin; patient 5, stably suppressed TSH, FIG. 4
  Initial decline of serum thyroglobulin (sTG): 25 % baseline levels
Serum thyroglobulin; within four months of starting treatment
  Mean decrease in serum thyroglobulin: 70%
p-AKT; [5]
  p-AKT staining in ECs: decreased
  p-AKT staining in TCs: did not show any change
p-AKT; Patient 2, at 17 months
  p-AKT staining in ECs and TCs: slight increase
[4]; [7]
  Clinical benefit (PR + SD) rate: 72%
  Clinical benefit (PR + SD), number of patients: 13
  Partial response (≧30%) rate: 24%
  Partial response (≧30%), number of patients: 10
  Stable disease rate: 48%
  Stable disease, number of patients: 19
[4]; all 30 patients, Kaplan-Meier, analysis four months after last patient started
  Overall median progression free survival: 79 weeks and 79.0 weeks
[4]; differentiated thyroid cancers alone, Kaplan-Meier
  DTC patients median progression free survival: 84 weeks
[4]; first 30 patients
  Largest decrease in target lesions by RECIST (upper end of range of responses): 80%
[4]; [8]
  Median time to progression / PFS, all patients: 72 weeks
  Median time to progression / PFS, differentiated thyroid cancers (DTC): 84 weeks
[4]; [9]
  Clinical benefit (PR + SD), number of patients: 23
  Partial response (PR, ≧30%), number of patients: 7
  Progressive disease as best response, number of patients: 2
  Progressive disease as best response, rate: (3%)
  Stable disease (SD), number of patients: 16
[4]; [10]
  Best response by RECIST: complete response rate: (0%)
  Best response by RECIST: complete response, number of patients: 0
[4]; patient with poorly differentiated thyroid cancer, at 4 weeks, before progression
  Decrease in size of visible shoulder nodule: 50%
[4]; person, follicular thyroid cancer, after 16 weeks, FIG. 3A
  CT response of target lesions, lung metastases: partial response
[4]; person, papillary thyroid cancer, miliary lung metastases, after 33 weeks, FIG. 3B
  CT burden of lung disease: marked improvement
[4]; two patients of FIG. 3, within the first six months of treatment
  Disease symptoms (cough, dyspnea on exertion): complete resolution of their symptoms

Source: patent US8637554B2, “Methods for treating thyroid cancer” (The Trustees of the University of Pennsylvania, priority 2008, dated 2014)
